Common to all, as to experiment: NCI anticancer screen, dose series, 48 h
The test system of test [1] is PC-3 prostate.
For test [2], the system named is UACC-257 melanoma.
Test [3] concerns SF-295 CNS.
Test [4] has as its system OVCAR-3 ovarian.
The subject of test [5] is NCI/ADR-RES ovarian.
Test [6] concerns SK-OV-3 ovarian.
For test [7], the system named is SK-MEL-2 melanoma.
Test [8] deals with TK-10 renal.
The test system of test [9] is MDA-MB-231 breast.
Test [10] deals with SN12C renal.

The text below walks through data of PubChem BioAssay (NCI).

Structures are written as SMILES.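 Protocol summary: plate cells (96-well), add compound at 5 concentrations, incubate 48 h, interpolate endpoints linearly. At the GI50, growth is halved. TGI: total growth inhibition.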 Where a SMILES comes first, the peptide text is derived from it. [ ]: non-standard residue; d: D form. The star is where a group is joined. ξ: configuration not given here. X6 = FC(F)(F)c1cc(NC(=S)*)cc(C(F)(F)F)c1; ξF = NC(Cc1ccccc1)C(=O)O Bounds are passed on as bounds.

Turning to `Cc1cc(I)cc(CN(C)CCCCN2CCCCC2)c1O`, the GI50 in [1] was 15 µM; in test [2], 4.2 µM; in [3] it was 3.05 µM; in test [4], 20 µM; in test [5] it was 19.5 µM; in test [6] it was 18.3 µM. For the same molecule, the GI50 in test [7] is 13.8 µM; in test [8], 15.4 µM; in test [9], 16.3 µM; in [10] it was 35.5 µM. The TGI was determined as 32 µM in test [1]; 15.1 µM in [2]; 7.62 µM in test [3]; 53.4 µM in test [4]; 73.2 µM in test [5]; 42.4 µM in test [6]. The TGI in test [7] is 29.2 µM; in test [8] it was 31.1 µM; in [9] it was 43 µM; in [10], more than 100 µM.
For `O=C(Nc1ccccc1OC(F)(F)F)Nc1n[nH]c2ccccc12`, the GI50 is 31.4 µM in test [1]; 47.2 µM in [2]; 39 µM in [3]; 90.8 µM in test [4]; 44.2 µM in test [5]; more than 100 µM in [6]. The GI50 in test [7] was 81.4 µM; in [8] it was 37.9 µM; in test [9] it was 17.9 µM; in test [10], 72.5 µM. Further, the TGI in test [1], in test [2], in test [3], in [4], in test [5] and in [6] was more than 100 µM throughout. For the same molecule, the TGI in [7], in test [8], in test [9] and in test [10] was more than 100 µM in each case.
For the molecule `CCC(CO)Nc1nc2ccc(Cl)cc2c2ccccc12` (centres undefined), the GI50 in [1] was 10.3 µM; in test [2], 15.3 µM; in test [3] it was 2.81 µM; in [4], 12.2 µM; in test [5], 5.95 µM; in test [6], 11.8 µM. The GI50 is 14.5 µM in test [7], 3.91 µM in [8], 4.9 µM in [9] and 11.5 µM in test [10]. Also, the TGI is 24.9 µM in test [1]; 28.6 µM in test [2]; 15.3 µM in [3]; 24.7 µM in test [4]; 21.4 µM in [5]; 24.1 µM in test [6]. Moreover, the TGI in test [7] is 28.4 µM; in test [8], 18 µM; in [9], 15.9 µM; in test [10], 25.3 µM.
As for `COc1ccc2c(c1)/C(=C/c1c(C)nc3sc(C)nn13)C(=O)N2`, the GI50 in test [1] is 2.48 µM; in [2] it was more than 100 µM; in [3], 1.48 µM; in [4] it was 0.959 µM; in test [5], 1.83 µM; in [6] it was 3.62 µM. Besides, the GI50 in [7] is 1.29 µM; in [8], 7.43 µM; in test [9], 7.59 µM; in test [10], 7.2 µM. The TGI in test [1] was more than 100 µM; in test [2] it was more than 100 µM; in [3], 50.3 µM; in [4] it was 37.9 µM; in [5], 13.6 µM; in [6], more than 27.5 µM. The TGI is 4.63 µM in test [7], more than 100 µM in test [8], more than 100 µM in [9] and more than 100 µM in test [10].
On to `O=C(/C=C/C12c3ccccc3C(c3ccccc31)C1C(=O)NC(=O)C12)c1ccncc1` (centres undefined), for which the GI50 in test [1] was 1.97 µM; in [2], 2.7 µM; in [3], 2.59 µM; in [4] it was 2.34 µM; in test [5], 2.31 µM; in test [6], 13.2 µM. The GI50 in test [7] is 2.88 µM; in [8] it was 2.61 µM; in test [9] it was 3.13 µM; in test [10], 2.55 µM. The TGI in test [1] stood at 5.4 µM; in test [2], 9.19 µM; in test [3], 7.54 µM; in [4], 5.96 µM; in test [5], 6.71 µM; in test [6] it was 26.7 µM. In addition, the TGI in test [7] was 7.72 µM; in [8] it was 7.75 µM; in [9], 12.7 µM; in test [10], 12 µM.
For `Clc1ccc2c(NCCCCNc3nc(N4CCCCC4)nc4ccccc34)ccnc2c1`, the GI50 in test [1] is 3.33 µM; in [2], 2.05 µM; in test [3], 1.22 µM; in test [4], 1.95 µM; in test [5], 2.68 µM; in test [6], 3.81 µM. The GI50 is 1.98 µM in test [7], 1.68 µM in test [8], 1.75 µM in [9] and 2.78 µM in test [10]. The TGI in test [1] stood at 14.6 µM; in test [2], 3.68 µM; in test [3], 2.6 µM; in [4] it was 4.89 µM; in test [5], 9.18 µM; in [6], 14.4 µM. In addition, the TGI in test [7] is 4.02 µM; in test [8] it was 3.5 µM; in [9], 4.28 µM; in test [10], 12.7 µM.
Take `COC(=O)[C@@H](NC(=O)CNC(=O)[C@H]1CCCN1C(=O)C(Cc1ccccc1)NC(=S)Nc1cc(C(F)(F)F)cc(C(F)(F)F)c1)C(C)C` (some centres undefined) (X6-[ξF][dP]GV-OMe): the GI50 in [1] was 2.48 µM; in test [2], 2.14 µM; in test [3], 2.33 µM; in [4] it was 2.96 µM; in test [5] it was 3.47 µM; in [6], 2.98 µM. The GI50 in [7] was 2.86 µM; in test [8] it was 4.45 µM; in test [9], 1.48 µM; in test [10], 1.85 µM. The TGI turned out to be 5.75 µM in test [2]; 6.12 µM in [3]; 8.48 µM in [4]; 43.3 µM in test [5]; 8.26 µM in test [6]; 6.86 µM in [7]. Moreover, the TGI in test [8] worked out at 18.8 µM; in test [9], 3.14 µM; in test [10], 4.26 µM.
